Laboratory results: patent publication US10918599B2, “Serum-stable compositions and methods for light-triggered release of materials” (priority 2015, dated 2021)

Experiments:
[1] = mice; cited from earlier work
[2] = system: MIA Paca-2 tumors; assay: Survival study, phototreatment efficacy (Example 1); assay type: in vivo
Procedure: Survival study. 5×10^6 MIA Paca-2 cells (obtained from ATTC) were injected in the right flank female nude mice mice (5 weeks, Jackson Labs, #007850). […] N=5-6. Dose for Dox-PoP is 7 mg/kg for Dox and the dose of PoP was adjusted to be equivalent to that of Dox-PoP 7 mg/kg (Dox to lipid loading ratio 1:5), which is 1.225 mg/kg (1.21 μmol/kg Pyro-phospholipid). […] 21 mg/kg of sterically stabilized liposomal Dox (HSPC:CHOL:DSPE-PEG-2K=56.3:38.4:5.3% mole) was used for standard treatment of Doxil®. Free Dox 7 mg/kg was used as a free drug control. 1 h after intravenous injection, tumors that need laser treatment were all irradiated at a fluence rate of 300 W/cm^2 for 16 min 40 s (total fluence 300 J/cm^2). HPPH was diluted in PBS containing 2% ethanol and 0.2% Tween 80 and injected at a dose of 1.21 μmol/kg. Light treatment was performed 24 h post injection. Tumor size was monitored 2-3 times per week and tumor volumes were estimated by measuring three tumor dimensions using a caliper and the ellipsoid formula: Volume=π·L·W·H/6, where L, W and H are the length, width and height of the tumor, respectively. The weights of the mice were monitored every week. MIA PaCa-2 mice were sacrificed when the volume exceeded 10 times of its initial volume.
For Kaplan-Meier survival curve, each pair of group were compared by Log-rank (Mantel-Cox) test. […]

[3] = system: MIA Paca-2 tumors; settings: mice, single dose; cited from earlier work

C=CC1=C(C)c2cc3[nH]c(c4c5nc(cc6[nH]c(cc1n2)c(C)c6CC)C(C)=C5C(=O)C4)C(CCC(=O)OC(COC(=O)CCCCCCCCCCCCCCC)COP(=O)([O-])OCC[N+](C)(C)C)C3C (stereo not shown) [Pyro-phospholipid]
well-tolerated intravenous dose [1]: ≤ 1000 mg/kg

HPPH
median survival ([2]; conventional PDT, 1.21 μmol/kg, light 24 h post injection, 300 J/cm^2): 38 days

COc1cccc2c1C(=O)c1c(O)c3c(c(O)c1C2=O)C[C@@](O)(C(=O)CO)C[C@@H]3O[C@H]1C[C@H](N)[C@H](O)[C@H](C)O1 [Free Dox, Doxorubicin]
maximum tolerated dose [3]: 7 mg/kg
median survival ([2]; 7 mg/kg, single dose, no laser): 19 days
